In patent publication US9718790B2, “Triazine derivative and pharmaceutical composition having an analgesic activity comprising the same” (SHIONOGI & CO., LTD., priority 2010, dated 2017):

molecular target: human P2X3 receptor (Homo sapiens (Human), UniProt P56373); assay: Evaluation of human P2X3 receptor inhibitory activity (Fluo-3 calcium fluorescence, FDSS 3000, ATP stimulation); type: cell-based; details: C6BU-1 cells stably expressing human P2X3 receptor, Fluo-3 fluorescence, FDSS 3000;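 note: stimulus was 50 nM ATP with fluorescence followed for 3 min, and the response per well was peak post-ATP fluorescence divided by the reading at measurement start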
Sequence (P56373 whole entry): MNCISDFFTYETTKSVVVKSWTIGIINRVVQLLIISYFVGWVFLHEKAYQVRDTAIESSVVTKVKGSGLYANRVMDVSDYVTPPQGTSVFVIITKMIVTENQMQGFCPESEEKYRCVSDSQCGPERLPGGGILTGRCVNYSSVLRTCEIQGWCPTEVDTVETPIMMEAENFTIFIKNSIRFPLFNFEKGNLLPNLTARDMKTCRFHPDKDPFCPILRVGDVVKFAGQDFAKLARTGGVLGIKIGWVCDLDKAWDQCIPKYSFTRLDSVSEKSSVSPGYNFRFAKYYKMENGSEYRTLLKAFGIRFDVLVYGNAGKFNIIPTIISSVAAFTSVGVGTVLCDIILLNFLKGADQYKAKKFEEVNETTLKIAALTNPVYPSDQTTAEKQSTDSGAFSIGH

Structure (SMILES)	IC50 [nM]
COC(=O)[C@@H](C)[C@H](C)n1c(=O)[nH]/c(=N\c2ccc(OC(C)C)c(C)c2)n(Cc2ccc(Cl)cc2)c1=O [Compound I-1025]	134
Cc1cc(/N=c2\[nH]c(=O)n([C@@H](C)[C@H](C)C(=O)O)c(=O)n2Cc2ccc(Cl)cc2)ccc1OC(C)C [Compound I-1026]	182
COC(=O)[C@@H](C)Cn1c(=O)[nH]/c(=N\c2ccc(OC(F)(F)F)c(Cl)c2)n(Cc2ccc(C)cc2)c1=O [Compound I-1027]	41
CC[C@@H](C)Oc1ccc(/N=c2\[nH]c(=O)n(CCC(=O)O)c(=O)n2Cc2ccc(C)cc2)cc1 [Compound I-1028]	78
CC[C@@H](C)Oc1ccc(/N=c2\[nH]c(=O)n(CCC(=O)O)c(=O)n2Cc2ccc(C)cc2)cc1C [Compound I-1029]	35
CC[C@@H](C)Oc1ccc(/N=c2\[nH]c(=O)n(CCC(=O)O)c(=O)n2Cc2ccc(C)cc2)cc1Cl [Compound I-1030]	14
Cc1ccc(Cn2c(=O)n(CCC(=O)O)c(=O)[nH]/c2=N\c2ccc(O[C@H](C)C(F)(F)F)cc2)cc1 [Compound I-1031]	64
Cc1ccc(Cn2c(=O)n(C[C@H](C)C(=O)O)c(=O)[nH]/c2=N\c2ccc(OC(F)F)c(Cl)c2)cc1 [Compound I-1032]	33
Cc1ccc(Cn2c(=O)n(C[C@H](C)C(=O)O)c(=O)[nH]/c2=N\c2ccc(OC(F)(F)F)c(Cl)c2)cc1 [Compound I-1033]	67
CCCOc1ccc(/N=c2\[nH]c(=O)n(C[C@@H](C)C(=O)OC)c(=O)n2Cc2ccc(Cl)cc2)cc1 [Compound I-1034]	5
CCCOc1ccc(/N=c2\[nH]c(=O)n(C[C@@H](C)C(=O)O)c(=O)n2Cc2ccc(Cl)cc2)cc1 [Compound I-1035]	65
COC(=O)[C@H](C)Cn1c(=O)[nH]/c(=N\c2ccc(OCC3CC3)cc2)n(Cc2ccc(Cl)cc2)c1=O [Compound I-1036]	5
C[C@H](Cn1c(=O)[nH]/c(=N\c2ccc(OCC3CC3)cc2)n(Cc2ccc(Cl)cc2)c1=O)C(=O)O [Compound I-1037]	93
CCCOc1ccc(/N=c2\[nH]c(=O)n(C[C@@H](CC)C(=O)OC)c(=O)n2Cc2ccc(Cl)cc2)cc1 [Compound I-1038]	6
CCCOc1ccc(/N=c2\[nH]c(=O)n(C[C@@H](CC)C(=O)O)c(=O)n2Cc2ccc(Cl)cc2)cc1 [Compound I-1039]	83
CCSc1ccc(/N=c2\[nH]c(=O)n(C[C@H](C)C(=O)OC)c(=O)n2Cc2ccc(Cl)cc2)cc1C [Compound I-1040]	128
COC(=O)[C@@H](C)Cn1c(=O)[nH]/c(=N\c2ccc(C#CC3CC3)c(C)c2)n(Cc2ccc(Cl)cc2)c1=O [Compound I-1041, (S)-1-(4-chlorobenzyl)-6-(3-mehyl-4-cyclopropylethynylphenylimino)-3-(2-methoxycarbonylpropyl)-1,3,5-triazinane-2,4-dion]	101
Cc1cc(/N=c2\[nH]c(=O)n(C[C@H](C)C(=O)O)c(=O)n2Cc2ccc(Cl)cc2)ccc1C#CC1CC1 [Compound I-1042]	148
COC(=O)[C@@H](C)Cn1c(=O)[nH]/c(=N\c2ccc(CC(C)C)c(C)c2)n(Cc2ccc(C)cc2)c1=O [Compound I-1043]	10
Cc1ccc(Cn2c(=O)n(C[C@H](C)C(=O)O)c(=O)[nH]/c2=N\c2ccc(CC(C)C)c(C)c2)cc1 [Compound I-1044]	19
CC[C@H](C)COc1ccc(/N=c2\[nH]c(=O)n(C[C@H](C)C(=O)OC)c(=O)n2Cc2ccc(C)cc2)cc1 [Compound I-1045]	159

Structure (SMILES)	IC50 [nM]
CCC[C@H](C)Oc1ccc(/N=c2\[nH]c(=O)n(C[C@H](C)C(=O)OC)c(=O)n2Cc2ccc(C)cc2)cc1 [Compound I-1046]	28
CCC[C@@H](C)Oc1ccc(/N=c2\[nH]c(=O)n(C[C@H](C)C(=O)OC)c(=O)n2Cc2ccc(C)cc2)cc1 [Compound I-1047]	154
CCC(CC)Oc1ccc(/N=c2\[nH]c(=O)n(C[C@H](C)C(=O)OC)c(=O)n2Cc2ccc(C)cc2)cc1 [Compound I-1048]	38
COC(=O)[C@@H](C)Cn1c(=O)[nH]/c(=N\c2ccc(OCCC(C)C)cc2)n(Cc2ccc(C)cc2)c1=O [Compound I-1049]	177
COC(=O)[C@@H](C)Cn1c(=O)[nH]/c(=N\c2ccc(OCC(C)(C)C)cc2)n(Cc2ccc(C)cc2)c1=O [Compound I-1050]	389
CCOC(=O)CCn1c(=O)[nH]/c(=N\c2ccc(OC[C@@H](C)CC)cc2)n(Cc2ccc(C)cc2)c1=O [Compound I-1051]	100
CCC[C@H](C)Oc1ccc(/N=c2\[nH]c(=O)n(CCC(=O)OCC)c(=O)n2Cc2ccc(C)cc2)cc1 [Compound I-1052]	19
CCC[C@@H](C)Oc1ccc(/N=c2\[nH]c(=O)n(CCC(=O)OCC)c(=O)n2Cc2ccc(C)cc2)cc1 [Compound I-1053]	79
CCOC(=O)CCn1c(=O)[nH]/c(=N\c2ccc(OC(CC)CC)cc2)n(Cc2ccc(C)cc2)c1=O [Compound I-1054]	18
CCOC(=O)CCn1c(=O)[nH]/c(=N\c2ccc(OCCC(C)C)cc2)n(Cc2ccc(C)cc2)c1=O [Compound I-1055]	91
CCOC(=O)CCn1c(=O)[nH]/c(=N\c2ccc(OCC(C)(C)C)cc2)n(Cc2ccc(C)cc2)c1=O [Compound I-1056]	177
CCCCCOc1ccc(/N=c2\[nH]c(=O)n(C[C@H](C)C(=O)OC)c(=O)n2Cc2ccc(C)cc2)cc1 [Compound I-1057]	89
CCCCCOc1ccc(/N=c2\[nH]c(=O)n(CCC(=O)OCC)c(=O)n2Cc2ccc(C)cc2)cc1 [Compound I-1058]	43
CC[C@H](C)COc1ccc(/N=c2\[nH]c(=O)n(C[C@H](C)C(=O)O)c(=O)n2Cc2ccc(C)cc2)cc1 [Compound I-1059]	123
CCC[C@H](C)Oc1ccc(/N=c2\[nH]c(=O)n(C[C@H](C)C(=O)O)c(=O)n2Cc2ccc(C)cc2)cc1 [Compound I-1060]	29
CCC[C@@H](C)Oc1ccc(/N=c2\[nH]c(=O)n(C[C@H](C)C(=O)O)c(=O)n2Cc2ccc(C)cc2)cc1 [Compound I-1061]	174
CCC(CC)Oc1ccc(/N=c2\[nH]c(=O)n(C[C@H](C)C(=O)O)c(=O)n2Cc2ccc(C)cc2)cc1 [Compound I-1062]	37
Cc1ccc(Cn2c(=O)n(C[C@H](C)C(=O)O)c(=O)[nH]/c2=N\c2ccc(OCCC(C)C)cc2)cc1 [Compound I-1063]	152
Cc1ccc(Cn2c(=O)n(C[C@H](C)C(=O)O)c(=O)[nH]/c2=N\c2ccc(OCC(C)(C)C)cc2)cc1 [Compound I-1064]	257
CCCCCOc1ccc(/N=c2\[nH]c(=O)n(C[C@H](C)C(=O)O)c(=O)n2Cc2ccc(C)cc2)cc1 [Compound I-1065]	85
CC[C@H](C)COc1ccc(/N=c2\[nH]c(=O)n(CCC(=O)O)c(=O)n2Cc2ccc(C)cc2)cc1 [Compound I-1066]	425

Structure (SMILES)	IC50 [nM]
CCC[C@H](C)Oc1ccc(/N=c2\[nH]c(=O)n(CCC(=O)O)c(=O)n2Cc2ccc(C)cc2)cc1 [Compound I-1067]	93
CCC(CC)Oc1ccc(/N=c2\[nH]c(=O)n(CCC(=O)O)c(=O)n2Cc2ccc(C)cc2)cc1 [Compound I-1069]	111
Cc1ccc(Cn2c(=O)n(CCC(=O)O)c(=O)[nH]/c2=N\c2ccc(OCCC(C)C)cc2)cc1 [Compound I-1070]	471
Cc1ccc(Cn2c(=O)n(CCC(=O)O)c(=O)[nH]/c2=N\c2ccc(OCC(C)(C)C)cc2)cc1 [Compound I-1071]	998
CCCCCOc1ccc(/N=c2\[nH]c(=O)n(CCC(=O)O)c(=O)n2Cc2ccc(C)cc2)cc1 [Compound I-1072]	252
COC(=O)[C@@H](C)Cn1c(=O)[nH]/c(=N\c2ccc(OC3CCOCC3)cc2)n(Cc2ccc(C)cc2)c1=O [Compound I-1073]	92
Cc1ccc(Cn2c(=O)n(C[C@H](C)C(=O)O)c(=O)[nH]/c2=N\c2ccc(OC3CCOCC3)cc2)cc1 [Compound I-1074]	86
COC(=O)[C@@H](C)Cn1c(=O)[nH]/c(=N\c2ccc(Br)cc2)n(Cc2ccc(C)cc2)c1=O [Compound I-1076]	177
COC(=O)[C@@H](C)Cn1c(=O)[nH]/c(=N\c2cccc(Br)c2)n(Cc2ccc(C)cc2)c1=O [Compound I-1077]	64
COC(=O)[C@@H](C)Cn1c(=O)[nH]/c(=N\c2ccc(C3=CCCCC3)cc2)n(Cc2ccc(C)cc2)c1=O [Compound I-1078]	218
COC(=O)[C@@H](C)Cn1c(=O)[nH]/c(=N\c2ccc(OC(C)C)cc2)n(Cc2ccc(I)cc2)c1=O [Compound I-1080]	66
COC(=O)[C@H](C)[C@H](C)n1c(=O)[nH]/c(=N\c2ccc(OC(C)C)cc2)n(Cc2ccc(C)cc2)c1=O [Compound I-1081]	30
Cc1ccc(Cn2c(=O)n([C@@H](C)[C@@H](C)C(=O)O)c(=O)[nH]/c2=N\c2ccc(OC(C)C)cc2)cc1 [Compound I-1082]	63
COC(=O)[C@@H](C)Cn1c(=O)[nH]/c(=N\c2ccc(C3=CCCC3)cc2)n(Cc2ccc(C)cc2)c1=O [Compound I-1083]	125
COC(=O)[C@@H](C)Cn1c(=O)[nH]/c(=N\c2cccc(C3=CCCC3)c2)n(Cc2ccc(C)cc2)c1=O [Compound I-1084]	392
COC(=O)[C@@H](C)Cn1c(=O)[nH]/c(=N\c2ccc(N3CCCCC3)cc2)n(Cc2ccc(C)cc2)c1=O [Compound I-1085]	34
COC(=O)[C@@H](C)Cn1c(=O)[nH]/c(=N\c2ccc(N3CCCC3)cc2)n(Cc2ccc(C)cc2)c1=O [Compound I-1086]	291
COC(=O)[C@@H](C)Cn1c(=O)[nH]/c(=N\c2ccc(C3CCCCC3)cc2)n(Cc2ccc(C)cc2)c1=O [Compound I-1087]	71
COC(=O)[C@@H](C)Cn1c(=O)[nH]/c(=N\c2cccc(C3CCCCC3)c2)n(Cc2ccc(C)cc2)c1=O [Compound I-1088]	548
COC(=O)[C@@H](C)Cn1c(=O)[nH]/c(=N\c2cccc(C3CCCC3)c2)n(Cc2ccc(C)cc2)c1=O [Compound I-1089]	487
COC(=O)[C@@H](C)Cn1c(=O)[nH]/c(=N\c2ccc(C3CCCC3)cc2)n(Cc2ccc(C)cc2)c1=O [Compound I-1090]	135
